Consider 3 molecules from patent publication US8697668B2, “Compositions and methods for preventing and treating cancer via modulating UBE1L, ISG215 and/or UBP43” (Trustees of Dartmouth College, priority 2002, dated 2014).

For data set [1], the system named is ISG15-conjugated cyclin D1. The data set is described as follows: Immunoprecipitation/immunoblot of ISG15-cyclin D1 conjugates in BEAS-2B cells. The data set is classed as cell-based, human. Conditions: BEAS-2B cells co-transfected with UBE1L, ISG15 and cyclin D1. An excerpt:
Cells were lysed with ice-cold radioimmunoprecipitation (RIPA) lysis buffer, using established techniques (Pitha-Rowe, et al. (2004) supra; Pitha-Rowe, et al. (2004) supra; Feng, et al. (2007) supra; Ma, et al. (2005) Cancer Res. 65:6476-83). Lysates were size-fractionated by sodium dodecyl sulphate-polyacrylamide gel electrophoresis (SDS-PAGE) assays before transfer to nitrocellulose membranes (Schleicher & Schuell Bioscience, Inc., Keene, N.H.). The polyclonal antibody recognizing the UBE1L amino terminus of UBE1L was used for immunoblot and immunohistochemical assays. Other primary antibodies for immunoblot assays included a rabbit polyclonal antibody recognizing cyclin D1 (M-20) (Santa Cruz Biotechnology, Santa Cruz, Calif.), a murine monoclonal antibody against hemagglutinin (HA)-tagged proteins (Babco, Richmond, Calif.) and a goat polyclonal antibody recognizing actin (Santa Cruz Biotechnology). Anti-mouse and anti-rabbit antisera were purchased (Amersham Biosciences, Piscataway, N.J.) as was anti-goat antisera (Santa Cruz Biotechnology) and these were used as respective secondary antibodies. Membranes used for immunoblot analyses were treated with the MEMCODE reversible stain (Pierce, Rockford, Ill.). […] Quantification of signal intensities was scored as before (Shah, et al. (2008) supra; Feng, et al. (2007) supra; Ma, et al. (2005) supra). […]
(In general: In western blotting, separated proteins are transferred to a membrane and probed.)

The subject of data set [2] is cyclin D1. The data set can be described thus: Cyclin D1 immunohistochemical expression, post- versus pretreatment lung cancer biopsies. The data set is classed as in vivo. From the text: (§1) Paraffin-embedded and formalin-fixed tissues were obtained from an Institutional Review Board-approved proof of principle bexarotene lung cancer trial (Dragnev, et al. (2007) supra). Tissues were examined for cyclin D1 (Petty, et al. (2004) supra; Dragnev, et al. (2007) supra; Dragnev, et al. (2005) supra), UBE1L (Pitha-Rowe, et al. (2004) supra), ISG15 (Andersen, et al. (2006) Br. J. Cancer 94:1465-71), and Ki-(Petty, et al. (2004) supra; Dragnev, et al. (2007) supra; Dragnev, et al. (2005) supra) immunohistochemical expression profiles.

For data set [3], the system named is UBE1L. The data set is described as follows: UBE1L immunohistochemical expression, post- versus pretreatment lung cancer biopsies. It is filed as in vivo.
Source text: as §1

Data set [4] deals with cyclin D1. The data set can be described thus: Cyclin D1 immunoblot in H358 cells. It is filed as cell-based. The method, then: (§2) The H358 lung cancer cell line was cultured in RPMI-1640 medium (INVITROGEN Corporation, Carlsbad, Calif.) containing L-glutamine, 10% fetal bovine serum and 1% antibiotic-antimycotic solution (CELLGRO, Herndon, Va.) (Petty, et al. (2004) Clin. Cancer Res. 10:7547-54). Cells were incubated at 37° C. in a humidified incubator with 5% CO2. Bexarotene treatments of HBE and lung cancer cells were accomplished according to known methods (Dragnev, et al. (2007) Clin. Cancer Res. 13:1794-800; Dragnev, et al. (2005) J. Clin. Oncol. 23:8757-64).
(§3) Cells were lysed with ice-cold radioimmunoprecipitation (RIPA) lysis buffer, using established techniques (Pitha-Rowe, et al. (2004) supra; Pitha-Rowe, et al. (2004) supra; Feng, et al. (2007) supra; Ma, et al. (2005) Cancer Res. 65:6476-83). Lysates were size-fractionated by sodium dodecyl sulphate-polyacrylamide gel electrophoresis (SDS-PAGE) assays before transfer to nitrocellulose membranes (Schleicher & Schuell Bioscience, Inc., Keene, N.H.). The polyclonal antibody recognizing the UBE1L amino terminus of UBE1L was used for immunoblot and immunohistochemical assays. […] Quantification of signal intensities was scored as before (Shah, et al. (2008) supra; Feng, et al. (2007) supra; Ma, et al. (2005) supra). […]

The subject of data set [5] is cyclin D1. The data set is described as follows: Cyclin D1 immunoblot in BEAS-2B cells. The data set is classed as cell-based, human. The protocol:
as §2, §3

The test system of data set [6] is UBE1L. The data set is described as follows: UBE1L immunoblot in BEAS-2B cells. The data set is classed as cell-based, human. Conditions: 1 μM, 10 days treatment versus vehicle. The method, then: as §2, §3
For a further data set, the system named is Ki-67. The data set is described as follows: Ki-67 immunostaining (proliferation), post- versus pretreatment lung cancer biopsies. The data set is classed as in vivo.
Source text: as §1

The subject of data set [7] is BEAS-2B human bronchial epithelial cells. The data set is described as follows: Clonal growth assay. It is filed as cell-based. Conditions: bexarotene treatment, FIG. 2. The protocol:
Human bronchial epithelial cells (BEAS-2B) were cultured in serum-free LHC-9 medium (Biofluids, Rockville, Md.) in accordance with established techniques (Langenfeld, et al. (1997) Proc. Natl. Acad. Sci. USA 94:12070-12074; Boyle, et al. (1999) J. Natl. Cancer Inst. 91:373-379).
Five μg of MSCVIRES-UBE1L-GFP and an empty vector were independently transfected into the Phoenix Amphotropic packaging cell line (ATCC, Manassas, Va.) using EUGENE 6 (Roche, Indianapolis, Ind.), and the vendor's recommended procedures. Forty-eight hours later, viral supernatants were […] respective transduced BEAS-2B HBE or H358 lung cancer cells with 4 μg/ml POLYBRENE (Sigma). Forty-eight hours later, cells positive for GFP expression were harvested using a FACSTAR Plus (Becton Dickinson, San Jose, Calif.) high speed sorting cytometer. This was repeated one week later to enrich for studied transductants.
Clonal growth assays (Langenfeld, et al. (1996) Oncogene 13:1983-90) were performed using 5×10^2 BEAS-2B and 1×10^3 H358 cells. These cells were independently engineered to over-express UBE1L or a control vector. […] Two weeks later, visible colonies were fixed and stained with DIFF QUIK solution (Baxtor, McGaw Park, Ill.) and quantified with the Col Count instrument (Oxford Optronix, Oxford, UK).

The conditions of data set [8]: cited from earlier work.
Data set [9] relates to ISG15. The data set is described as follows: ISG15 immunohistochemical expression, post- versus pretreatment lung cancer biopsies. The data set is classed as in vivo. Particulars: post- and pre-bexarotene treatment biopsies of the lung cancer cases.
Source text: as §1

A further data set concerns E1. The data set can be described thus: E1 mRNA expression in NB4-S1 cells. It is filed as cell-based. Particulars: RA 1 μM.
Data set [10] deals with UBE1L. The data set is described as follows: UBE1L immunoblot expression in NB4 cells. The data set is classed as cell-based. Conditions: NB4-S1 APL cells, RA 1 μM. From the text: Two rabbit polyclonal antibodies against UBE1L were independently derived (Covance Research Products, Denver, Pa.) using one peptide within the amino terminus (Asp-Cys-Asp-Pro-Arg-Ser-Ile-His-Val-Arg-Glu-Asp-Gly-Ser-Leu-Glu-Ile-Gly-Asp (SEQ ID NO:10)) and a second peptide within the carboxyl terminus (Pro-Gly-Ser-Gln-Asp-Trp-Thr-Ala-Leu-Arg-Glu-Leu-Leu-Lys-Leu-Leu (SEQ ID NO:11)). Specificities of these antisera were confirmed by immunoblot analyses of UBE1L-transfected CHO cells.
Immunoblot analyses were performed using established techniques (Langenfeld, et al. (1997) Proc. Natl. Acad. Sci. USA 94:12070-12074; Spinella, et al. (1999) J. Biol. Chem. 274:22013-22018). Anti-RARα antibody was provided by and can be purchased from P. Chambon (Institut National de la Sant et de la Recherche Mdicale, Strasbourg, France) to detect PML/RARα (Nason-Burchenal, et al. (1998) Blood 92:1758-1767; Nason-Burchenal, et al. (1998) Oncogene 17:1759-1768). An anti-HA mAb was purchased (Babco, Richmond, Calif.) as was an anti-actin polyclonal antibody, C-11 (Santa Cruz Biotechnology, Santa Cruz, Calif.).

The test system of data set [11] is ISG15. The data set can be described thus: ISG15 expression and conjugation in NB4 cells. The data set is classed as cell-based.
In data set [12] the test system is UBE1L. The data set is described as follows: UBE1L mRNA expression, reverse transcription-PCR in NB4 APL cells. Conditions: 10 μM RA. It is filed as cell-based. The method, then: (§4) The NB4 APL cell line expresses PML/RARα (Lanotte, et al. (1991) Blood 77:1080-1086). NB4-S1 and NB4-R1 are RA-sensitive and RA-resistant clones of NB4 cells, respectively (Nason-Burchanel, et al. (1997) Differentiation 61:321-331). These cells were cultured in RPMI-1640 medium supplemented with 10% FBS (see, Nason-Burchenal et al. (1997) supra).
UBE1L mRNA expression was assessed by a reverse transcription-PCR assay in accordance with established methods (Kakizuka et al. (1991) Cell 68:663-674). The forward primer was 5′-AGGTGGCCAAGAACTTGGTT-3′ (SEQ ID NO:8), and the reverse primer was 5′-CACCACCTGGAAGTCCAACA-3′ (SEQ ID NO:9). The PCR product was visualized by probing with a ^32P-labeled primer. Results were confirmed independently by Northern analysis using a 1.0-kb EcoRI/NcoI-radiolabeled UBE1L probe in accordance with standard techniques (Langenfeld et al. (1997) Proc. Natl. Acad. Sci. USA 94:12070-12074). This probe had limited homology to E1.

A further data set deals with NB4-S1 APL cells. The data set can be described thus: NBT reduction maturation (differentiation) assay. It is filed as cell-based. Conditions: 5 days treatment with RA (1 μM). The method, then:
as §4
NB4 cell differentiation was scored by using the nitroblue tetrazolium (NBT) reduction assay (Nason-Burchenal, et al. (1997) supra; Nason-Burchenal, et al. (1998a) Blood 92:1758-1767; Nason-Burchanel, et al. (1998b) Oncogene 17:1759-1768) Transductants were identified by green fluorescent protein (GFP) coexpression. Apoptosis was scored by using established techniques and Hoechst staining of transductants that co-expressed GFP (Nason-Burchenal, et al. (1998a) supra; Nason-Burchenal, et al. (1998b) supra; Stadheim, et al. (2001) Cancer Res. 61:1533-1540). Digital images were collected using an OLYMPUS 1×70 inverted microscope, a cooled charge-coupled device camera, and a MIRACAL Pro Single Cell Imaging System (OLYMPUS LSR Research, Melville, N.Y.).

The mark [13] stands for this setting: case with low bexarotene levels.
Where [14] appears, read: lung cancer case with high levels.
Where [15] appears, read: representative lung cancer case with low levels.

Read-outs that look alike come from different tables or passages of the source. Where a SMILES comes first, the peptide text is derived from it. [ ]: non-standard residue; d: D form. Nle = CCCC[C@H](N)C(=O)O

Take `CCCC[C@@H](C=O)NC(=O)[C@H](CC(C)C)NC(=O)[C@H](CC(C)C)NC(C)=O` [ALLN] (Ac-Leu-Leu-[Nle]-aldehyde): in [1], the “ISG15ylated cyclin D1 species” value is listed as “stabilized”.
Consider `C=C(c1ccc(C(=O)O)cc1)c1cc2c(cc1C)C(C)(C)CCC2(C)C` [Bexarotene], for which the “cyclin D1 expression in post-versus pre-treatment biopsies” value in the data set with cyclin D1 [2] (case with high bexarotene plasma and intratumoral levels) is listed as “declined”. In the data set on cyclin D1 [2] (setting [13]), the “cyclin D1 immunohistochemical expression profile” value is on record as “not appreciably altered”. In addition, the “odds ratio, association between intratumoral bexarotene concentration and UBE1L increase” value in the data set with UBE1L [3] (95% asymptotic CI 0.1, 354.9) is on record as 6. In addition, the UBE1L immunohistochemical expression result with UBE1L [3] (case with high bexarotene levels) is “increase”. Besides, the “UBE1L immunohistochemical expression profile” value with UBE1L [3] (setting [13]) is reported as “not appreciably altered”. In addition, the “response rate for UBE1L” value in the data set with UBE1L [3] (five cases examined, 95% CI 1, 72) was found to be 20%. Further, the “cyclin D1 protein” value in the data set with cyclin D1 [4] and with cyclin D1 [5] was “repressed” each time. Moreover, the UBE1L expression entry with UBE1L [6] was “prominently increased”. The “proliferation, Ki-67 immunostaining” value with Ki-67 (case with high bexarotene levels, post-versus pretreatment biopsies) is given as “decrease”. The “Repression of Ki-67 immunostaining” value in the data set on Ki-67 (setting [13]) is recorded as “not observed”. Besides, the BEAS-2B clonal growth result in data set [7] was “dose-dependent decline”; in [7] (listed as bexarotene), “Dose-dependent inhibition”. The bexarotene intratumoral level in [8] (setting [14]) was 0.31 µM; in data set [8] (setting [15]) it was 0.09 µM. Moreover, the results for the bexarotene plasma level in data set [8] (setting [14]) and in data set [8] (setting [15]) were 1.49 µM and 0.13 µM, respectively. For the same molecule, in the data set with ISG15 [9], the ISG15 immunohistochemical expression entry is on record as “similar”.
Turning to `CC1=C(/C=C/C(C)=C/C=C/C(C)=C/C(=O)O)C(C)(C)CCC1` [RA, All-trans-retinoic acid], the “E1 mRNA” value with E1 is “not induced”. In the data set with UBE1L [10], the UBE1L protein expression result is given as “induced”. Further, the ISG15 expression result in the data set with ISG15 [11] (RA-sensitive NB4 cells) was “augments”. Also, the “intracellular ISG15 conjugation” value in the data set with ISG15 [11] (retinoid-sensitive NB4 cells) is listed as “increases”. The UBE1L expression result in the data set on UBE1L [12] (RA-resistant NB4-R1 cell line, same time period) is given as “not induced”. Moreover, the “UBE1L mRNA induction” value with UBE1L [12] (RA-sensitive NB4-S1 cells, reverse transcription-PCR) was “induction occurred by three hours”. For the same molecule, in the data set on NB4-S1 APL cells, the “NBT, %” value is given as 92%.
